Measured values from patent publication US5734081A, “Arylthio compounds” (Warner-Lambert Company, priority 1995, dated 1998).
pEC50: −log10 of the molar value.

How the values were obtained:
[1] = CEM cell growth inhibition (XTT, noninfected cells); assay type: cell-based; conditions: human, CEM Cell Assay, drug alone, read-out: IC50 (Inhibitory Concentration where drug alone inhibits cell growth)
Procedure: (§1) Yet another test system employed to determine antiviral activity is called the CEM cell assay.
(§2) T4 lymphocytes (CEM cell line) are exposed to HIV at a virus to cell ratio approximately 0.05, and plated along with noninfected control cells in 96-well microliter plates.
(§3) The candidate agent is dissolved in dimethyl sulfoxide (unless otherwise noted), then diluted 1:200 in cell culture medium. Further dilutions (half-log10) are prepared before adding to an equal volume of medium containing either infected or noninfected cells. Cultures are incubated at 37° in a 5% carbon dioxide atmosphere for 6 or 7 days. The tetrazolium salt, XTT, is added to all wells, and cultures are incubated to allow formazan color development by viable cells (J. National Cancer Institute, 1989;81:577-586). Individual wells are analyzed spectrophotometrically to quantitate formazan production, and in addition are viewed microscopically for detection of viable cells confirmation of protective activity.
(§4) Drug-tested virus-infected cells are compared with drug-treated noninfected cells and with other appropriate controls (untreated infected and untreated noninfected cells, drug-contain wells without cells, etc.) on the same plate. Data are reviewed in comparison with other tests done at the same time and a determination about activity is made.

[2] = biological target: T1, HIV-1 Nucleocapsid Protein (NCp7) (Human immunodeficiency virus type 1 group M subtype B, UniProt P12493); experiment: Zinc extrusion assay (TSQ fluorescence) from the zinc fingers of HIV-1 nucleocapsid protein (NCp7); assay type: biochemical; conditions: 10 μM compound, 2.8 μM NCp7, pH 7.4, 26° C., 90 minutes
T1 construct: The NCp7 protein containing 2 Zn-fingers and 2 Zn ions is incubated with drug
Description: The compounds of the present invention cause the extrusion of zinc from the nucleocapsid protein (NCp7) of HIV-1. The NC protein is highly conserved among all retroviruses (South T., Blake P., et al., Biochemistry, 1990;29:7786) and is essential for viral infectivity (Aldovini A. and Young R., J. Virology, 1990;64:1920 and Gorelick R., Nigida S., et al., J. Virology, 1990;64:3207). The zinc is normally held in NC proteins by 1 or 2 zinc fingers. In the case of HIV-1, 2 zinc fingers are present (Summers M., South T., et al., Biochemistry, 1990;29:329) and are involved specifically with the PSI site on viral RNA which controls the packaging of viral RNA. Interference of this packaging causes the formation of non-infectious virions (Dannull J., Surovoy A., et al., EMBO, 1994;13:1525). It has previously been shown that compounds that cause zinc extrusion have potent anti-HIV activity in multiple cell lines and against all retroviruses (Rice W., Schaeffer C., et al., Nature, 1993;361:473).
A fluorescence-based assay has been developed to monitor the ejection of zinc from purified HIV-1 NCp7. The fluorophore, N-(6-methoxy-8-quinolyl)-p-toluenesulfonamide (TSQ), has an increased fluorescent signal upon bonding zinc ion in solution. The NCp7 protein containing 2 Zn-fingers and 2 Zn ions is incubated with drug causing the extrusion of Zn ions. The released Zn is then sequestered by the TSQ and the increased fluorescence monitored relative to control. […] Fluorescence (excitation 355 nm emission 400 nm) was monitored versus time. Controls were the NCp7 under assay conditions without drug, and apo NCp7 (no Zn) with drug. The % Zn extrusion was calculated based on the actual fluorescence measured divided by the fluorescence of all theoretical Zn extruded (5.6 μM)×100.
Table 1 below presents data for several invention compounds evaluated in the zinc extrusion assay described above.

[3] = H9 cell cytotoxicity (XTT assay, uninfected cells); assay type: cell-based; conditions: human, drug alone, read-out: IC50 (Inhibitory Concentration where drug alone inhibits cell growth)
Procedure: (§5) The H9 T-cell line is batch infected with HIV virus at an M0I of 0.01. After 2 hours absorption, the cells are washed, resuspended in RPMI-1640/10% fetal calf serum, and seeded at […] of a 96-well plate. A duplicate plate of uninfected H9 cells is prepared for the cytotoxicity assay. Drugs are serially diluted 1/3.16 in DMSO, transferred to media at an 8× concentration, and then added to the cultures in triplicate. The final DMSO concentration of 0.002 (0.2%).
(§6) Viral production is measured by RT assay and cytotoxicity is measured by XTT assay at 7 days post-infection. The RT assay is performed as a modification of Borroto-Esoda and Boone, J. Virol., 1991;65:1952-1959 and quantitated using a Molecular Dynamics Phosphoimager with Imagequant software. The XTT assay is performed as a modification of Roehm, et al., J. Immuno. Methods., 1991;142:257-265 and quantitated using a molecular Devices Thermomax plate reader with Softmax software.
(§7) Data is electronically transferred to a Microsoft Excell spreadsheet for analysis. The RT assay values equivalent to 50% and 90% inhibition of virus production are calculated from the untreated controls. The concentrations of inhibitor required to produce these values (IC50 and IC90) are interpolated from data points flanking these RT activities. The XTT assay values equivalent to 50% cytotoxicity are calculated from the untreated controls. The concentrations of inhibitor required to produce this value are interpolated from data points flanking these XTT values.

HIV-1 [4] = experiment: HIV H9 cell assay, anti-HIV-1 activity; assay type: cell-based; conditions: Human immunodeficiency virus 1, H9, 168 h, read-out: EC50 (Effective Concentration which protects cells from viral cytopathic effects)
Description: Another test system utilized to evaluate the invention compounds is called HIV H9 assay. The HIV H9 cell assay measures the inhibitor concentration required to suppress HIV-1 virus replication. In this system, viral growth occurs through multiple rounds of the life-cycle. Any suppression of the replication kinetics results in a geometric decrease in virus production. As a result, this assay is a sensitive means of measuring the ability of a compound to inhibit HIV-1 viral replication.
as §5, §6, §7

HIV-1 [5] = experiment: CEM cell assay, anti-HIV-1 activity; assay type: cell-based; conditions: Human immunodeficiency virus 1, CCRF-CEM, HIV-1, 6 or 7 days, read-out: EC50 (Effective Concentration which protects cells from viral cytopathic effects)
Description: The test systems utilized to establish the antiviral activity of the arylthio compounds of this invention are well recognized in the art and are routinely employed for such purpose. For example, the assay utilized to evaluate the compounds activity against the HIV virus is that employed by the U.S. National Cancer Institute as described by Weislow O. S., et al., J. Natl. Cancer Inst., 1989;81:577-586, incorporated herein by reference.
The procedure is designed to detect agents acting at any stage of the virus reproductive cycle. The assay basically involves the killing of T4 lymphocytes by HIV. Small amounts of HIV are added to cells, and at least two complete cycles of virus reproduction are necessary to obtain the required cell killing. Agents which interact with virions, cells, or virus gene-products to interfere with viral activities will protect cells from cytolysis. The system is automated in several features to accommodate large numbers of candidate agents, and is generally designed to detect anti-HIV activity. However, compounds which degenerate or are rapidly metabolized in the culture conditions may not show activity in this screen.
as §1, §2, §3, §4

SMILES | CC50 [1] [µM] | % Zinc Extrusion Relative to Control [2] [%] | CC50 at 168 h [3] [µM] | pEC50 (HIV-1 [4]) | pEC50 (HIV-1 [5])
CCC(C)C(NC(=O)c1ccccc1SSc1ccccc1C(=O)NC(C(=O)O)C(C)CC)C(=O)O (racemic) [Example 5, 2-[[2-[(1-Carboxy-2-methylbutylcarbamoyl)phenyldisulfanyl]-benzoyl]-amino]-3-methylpentanoic acid] | 105 | 87 | 62 | 5.85 | 4.98
CC(=O)Nc1ccc(S)c(C(N)=O)c1 [Example 10, 5-Acetylamino-2-thiobenzamide] | – | – | > 100 | 5.27 | –
NS(=O)(=O)c1ccc(CNC(=O)c2ccccc2SSc2ccccc2C(=O)NCc2ccc(S(N)(=O)=O)cc2)cc1 [Example 12, 2,2'-Dithiobis[N-[[4-(aminosulfonyl)phenyl]methy]benzamide]] | 21 | 27 | – | – | 6.23
O=C(Nc1ccc(S(=O)(=O)Nc2ncccn2)cc1)c1ccccc1SSc1ccccc1C(=O)Nc1ccc(S(=O)(=O)Nc2ncccn2)cc1 [Example 15, 2,2'-Dithiobis[N-[4-[(2-pyrimidinylamino)sulfonyl]phenyl]-benzamide]] | – | 72 | 22 | 5.70 | –
O=C(N[C@@H](C(=O)O)c1ccccc1)c1ccccc1SSc1ccccc1C(=O)N[C@@H](C(=O)O)c1ccccc1 [Example 68, [R-(R*,R*)] (2-{2-[(Carboxy-phenyl-methyl)-carbamoyl]phenyldisulfanyl}-benzoylamino)-phenyl-acetic acid] | > 100 | 89 | – | – | 4.60
NC(=O)c1cc(NC(=O)C(F)(F)F)ccc1SSc1ccc(NC(=O)C(F)(F)F)cc1C(N)=O [Example 74] | 67 | 59 | – | – | 5.20
NC(=O)c1cc(NC(=O)c2ccccc2)ccc1SSc1ccc(NC(=O)c2ccccc2)cc1C(N)=O [Example 75, 2,2'-Dithiobis[5-(benzoylamino)-benzamide]] | 59 | 52 | – | – | 5.28
O=C(O)CCNC(=O)c1ccccc1SSc1ccccc1C(=O)NCCC(=O)O [Example 76, 3,3'-[Dithiobis(2,1-phenylenecarbonylimino)]bis-propionic acid] | > 100 | 82 | – | – | 5.21
CC(SSc1ccccc1C(=O)Nc1ccc(S(N)(=O)=O)cc1)C(=O)O (centres unmarked) [Example 132, 2-[2-(4-Sulfamoylphenylcarbamoyl)phenyldisulfanyl]propionic acid] | > 100 | 70 | – | – | 5.55
COC(=O)[C@H](CSSc1ccccc1C(=O)Nc1ccc(S(N)(=O)=O)cc1)NC(C)=O [Example 133, 2-Acetylamino-3-[2-(4-sulfamoylphenylcarbamoyl)phenyldisulfanyl]-propionicacid, methyl ester] | 69 | 53 | – | – | 5.17
CC(=O)N[C@@H](CSSc1ccccc1C(=O)Nc1ccc(S(N)(=O)=O)cc1)C(=O)O [Example 134, 2-Acetylamino-3-[2-(4-sulfamoylphenylcarbamoyl)phenyldisulfanyl]-propionic acid] | > 100 | 77 | – | – | 5.16
CC(SSc1ccccc1C(=O)Nc1ccc(S(N)(=O)=O)cc1)C(=O)NCC(=O)O (centres unmarked) [Example 135, {2-[2-(4-Sulfamoylphenylcarbamoyl)phenyldisulfanyl]propionylamino}-acetic acid] | > 100 | 40 | – | – | 5.24
CC(C)(SSc1ccccc1C(=O)Nc1ccc(S(N)(=O)=O)cc1)C(N)C(=O)O (centres unmarked) [Example 138, 2-Amino-3-methyl-3-[2-(4-sulfamoylphenylcarbamoyl)phenyldisulfanyl]-butyric acid] | 66 | – | – | – | 5.20
COC(=O)[C@H](N)C(C)(C)SSc1ccccc1C(=O)Nc1ccc(S(N)(=O)=O)cc1 [Example 139, 2-Amino-3-methyl-3-[2-(4-sulfamoylphenylcarbamoyl)phenyldisulfanyl]-butyric acid, methyl ester] | > 100 | 70 | – | – | 5.16
CN(C(=O)c1ccccc1SSc1ccccc1C(=O)N(C)c1ccc(S(N)(=O)=O)cc1)c1ccc(S(N)(=O)=O)cc1 [Example 142] | > 100 | 84 | – | – | 4.77
NS(=O)(=O)c1cc(Cl)ccc1SSc1ccc(Cl)cc1S(N)(=O)=O [Example 148, 2,2'-Dithiobis[5-chloro]-benzenesulfonamide] | 30 | 92 | – | – | 4.92
NS(=O)(=O)c1ccc(NC(=O)c2ccc(SSc3ccc(C(=O)Nc4ccc(S(N)(=O)=O)cc4)cc3)cc2)cc1 [Reference Compound, 4,4dithiobis-4sulfamoyl benzanilide, reference compound] | > 100 | 0 | > 100 | < 4.00 | < 4.00
